Data: ChEMBL document CHEMBL5291721, “A preclinical secondary pharmacology resource illuminates target-adverse drug reaction associations of marketed drugs” (Nat Commun, 2023)

Tests used:
[1] = target: 3',5'-cyclic-AMP phosphodiesterase 4D (Homo sapiens, UniProt Q08499); format: functional
[2] = target: cGMP-inhibited 3',5'-cyclic phosphodiesterase 3A (Homo sapiens, UniProt Q14432); format: functional
[3] = target: T1, Alpha-2C adrenergic receptor (Homo sapiens, UniProt P18825); format: functional
T1 sequence (P18825 whole entry): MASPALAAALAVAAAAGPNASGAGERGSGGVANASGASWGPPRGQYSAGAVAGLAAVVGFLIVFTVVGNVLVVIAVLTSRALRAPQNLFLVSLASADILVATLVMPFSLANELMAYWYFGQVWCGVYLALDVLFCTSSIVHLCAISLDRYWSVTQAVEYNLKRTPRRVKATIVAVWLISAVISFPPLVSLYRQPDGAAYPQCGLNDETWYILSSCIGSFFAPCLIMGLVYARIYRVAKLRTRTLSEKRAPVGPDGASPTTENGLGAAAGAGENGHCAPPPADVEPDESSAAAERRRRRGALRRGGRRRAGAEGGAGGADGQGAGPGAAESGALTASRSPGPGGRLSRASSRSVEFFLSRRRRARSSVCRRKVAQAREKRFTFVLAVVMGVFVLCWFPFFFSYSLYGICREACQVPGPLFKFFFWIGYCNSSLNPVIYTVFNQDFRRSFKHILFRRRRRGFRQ

Adenosine receptor A1 = target: T2, Adenosine receptor A1 (Homo sapiens, UniProt P30542)
T2 sequence (P30542 whole entry): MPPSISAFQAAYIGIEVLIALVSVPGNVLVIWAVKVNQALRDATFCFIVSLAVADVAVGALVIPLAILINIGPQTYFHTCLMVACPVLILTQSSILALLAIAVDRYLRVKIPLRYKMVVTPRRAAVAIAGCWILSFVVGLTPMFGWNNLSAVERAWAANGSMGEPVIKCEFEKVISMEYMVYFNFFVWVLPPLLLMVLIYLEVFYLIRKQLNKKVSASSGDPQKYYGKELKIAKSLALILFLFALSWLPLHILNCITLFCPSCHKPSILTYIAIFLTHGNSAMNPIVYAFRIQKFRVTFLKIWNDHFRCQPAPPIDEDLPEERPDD

[4] = target: Gamma-aminobutyric acid receptor subunit alpha-1 (Rattus norvegicus, UniProt P62813); format: functional
Gamma-aminobutyric acid receptor subunit alpha-1, sequence (P62813 whole entry): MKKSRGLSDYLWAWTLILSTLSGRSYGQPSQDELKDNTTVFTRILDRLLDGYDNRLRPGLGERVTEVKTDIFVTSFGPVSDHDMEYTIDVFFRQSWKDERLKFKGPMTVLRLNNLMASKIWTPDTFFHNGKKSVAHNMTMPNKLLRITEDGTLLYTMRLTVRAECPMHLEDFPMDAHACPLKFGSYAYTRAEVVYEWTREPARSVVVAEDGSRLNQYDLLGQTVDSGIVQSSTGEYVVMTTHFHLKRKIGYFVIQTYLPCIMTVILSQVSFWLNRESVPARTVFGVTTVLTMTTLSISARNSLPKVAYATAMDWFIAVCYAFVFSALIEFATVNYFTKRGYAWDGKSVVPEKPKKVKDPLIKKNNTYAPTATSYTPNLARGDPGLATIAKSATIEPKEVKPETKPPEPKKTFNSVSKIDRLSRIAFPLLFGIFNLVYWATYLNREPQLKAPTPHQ

[5] = target: T3, Alpha-2A adrenergic receptor (Homo sapiens, UniProt P08913); format: functional, cell-based
T3 sequence (P08913 whole entry): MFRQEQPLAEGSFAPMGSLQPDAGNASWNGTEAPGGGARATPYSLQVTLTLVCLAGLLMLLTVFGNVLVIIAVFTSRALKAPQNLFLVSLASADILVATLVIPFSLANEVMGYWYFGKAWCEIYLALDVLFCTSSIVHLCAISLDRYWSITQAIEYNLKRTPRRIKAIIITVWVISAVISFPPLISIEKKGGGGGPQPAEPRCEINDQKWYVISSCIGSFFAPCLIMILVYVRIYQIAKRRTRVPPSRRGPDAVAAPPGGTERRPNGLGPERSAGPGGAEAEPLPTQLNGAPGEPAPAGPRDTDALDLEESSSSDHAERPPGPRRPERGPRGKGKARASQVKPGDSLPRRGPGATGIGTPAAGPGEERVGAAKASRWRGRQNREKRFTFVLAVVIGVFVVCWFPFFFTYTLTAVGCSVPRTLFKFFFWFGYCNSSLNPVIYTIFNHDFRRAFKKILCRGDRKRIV

[6] = target: T4, Prostaglandin G/H synthase 1 (Rattus norvegicus, UniProt Q63921); format: functional
T4 sequence (Q63921 whole entry): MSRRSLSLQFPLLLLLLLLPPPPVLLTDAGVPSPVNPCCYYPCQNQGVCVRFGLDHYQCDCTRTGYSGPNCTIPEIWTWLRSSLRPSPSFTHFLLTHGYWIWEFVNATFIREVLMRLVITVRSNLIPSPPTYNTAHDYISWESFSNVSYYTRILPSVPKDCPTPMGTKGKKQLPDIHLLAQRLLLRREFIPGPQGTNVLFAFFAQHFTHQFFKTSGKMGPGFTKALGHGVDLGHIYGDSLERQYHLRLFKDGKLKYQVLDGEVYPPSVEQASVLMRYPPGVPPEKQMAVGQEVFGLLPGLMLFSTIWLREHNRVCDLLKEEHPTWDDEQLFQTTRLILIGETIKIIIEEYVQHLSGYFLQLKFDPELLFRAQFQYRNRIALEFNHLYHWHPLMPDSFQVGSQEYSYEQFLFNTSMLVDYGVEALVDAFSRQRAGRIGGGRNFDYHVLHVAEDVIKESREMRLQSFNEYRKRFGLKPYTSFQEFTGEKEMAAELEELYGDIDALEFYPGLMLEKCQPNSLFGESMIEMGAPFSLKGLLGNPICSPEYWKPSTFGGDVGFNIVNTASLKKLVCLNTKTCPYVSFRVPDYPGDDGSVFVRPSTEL

[7] = target: 5-hydroxytryptamine receptor 2B (Homo sapiens, UniProt P41595); format: functional, cell-based
5-hydroxytryptamine receptor 2B, sequence (P41595 whole entry): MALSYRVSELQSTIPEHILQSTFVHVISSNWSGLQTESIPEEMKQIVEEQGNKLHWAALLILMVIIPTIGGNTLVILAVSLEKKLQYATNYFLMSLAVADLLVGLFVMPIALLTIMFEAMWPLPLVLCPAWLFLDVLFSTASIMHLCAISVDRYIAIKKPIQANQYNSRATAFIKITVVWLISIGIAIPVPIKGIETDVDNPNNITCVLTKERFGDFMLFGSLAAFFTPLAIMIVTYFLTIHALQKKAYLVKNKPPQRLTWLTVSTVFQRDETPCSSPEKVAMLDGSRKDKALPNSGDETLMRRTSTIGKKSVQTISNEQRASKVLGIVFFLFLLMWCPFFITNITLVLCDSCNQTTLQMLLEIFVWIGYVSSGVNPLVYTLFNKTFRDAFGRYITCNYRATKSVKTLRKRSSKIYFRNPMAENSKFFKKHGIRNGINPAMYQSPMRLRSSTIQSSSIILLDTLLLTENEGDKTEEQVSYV

[8] = target: T5, Equilibrative nucleoside transporter 1 (Homo sapiens, UniProt Q99808)
T5 sequence (Q99808 whole entry): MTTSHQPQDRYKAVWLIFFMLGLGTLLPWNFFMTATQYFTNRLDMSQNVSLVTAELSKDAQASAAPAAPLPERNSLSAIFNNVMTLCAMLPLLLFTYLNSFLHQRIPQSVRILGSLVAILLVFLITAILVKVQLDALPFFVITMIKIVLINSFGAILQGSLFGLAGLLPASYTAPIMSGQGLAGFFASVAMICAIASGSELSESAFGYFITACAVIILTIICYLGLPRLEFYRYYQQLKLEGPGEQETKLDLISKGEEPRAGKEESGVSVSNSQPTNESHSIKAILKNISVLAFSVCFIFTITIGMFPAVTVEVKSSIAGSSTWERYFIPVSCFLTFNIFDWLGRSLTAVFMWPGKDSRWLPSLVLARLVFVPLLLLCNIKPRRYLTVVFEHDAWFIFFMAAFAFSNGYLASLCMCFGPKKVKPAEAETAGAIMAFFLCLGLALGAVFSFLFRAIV
Further: assay procedure not described here.

3',5'-cyclic-AMP phosphodiesterase 4D, sequence (Q08499 whole entry): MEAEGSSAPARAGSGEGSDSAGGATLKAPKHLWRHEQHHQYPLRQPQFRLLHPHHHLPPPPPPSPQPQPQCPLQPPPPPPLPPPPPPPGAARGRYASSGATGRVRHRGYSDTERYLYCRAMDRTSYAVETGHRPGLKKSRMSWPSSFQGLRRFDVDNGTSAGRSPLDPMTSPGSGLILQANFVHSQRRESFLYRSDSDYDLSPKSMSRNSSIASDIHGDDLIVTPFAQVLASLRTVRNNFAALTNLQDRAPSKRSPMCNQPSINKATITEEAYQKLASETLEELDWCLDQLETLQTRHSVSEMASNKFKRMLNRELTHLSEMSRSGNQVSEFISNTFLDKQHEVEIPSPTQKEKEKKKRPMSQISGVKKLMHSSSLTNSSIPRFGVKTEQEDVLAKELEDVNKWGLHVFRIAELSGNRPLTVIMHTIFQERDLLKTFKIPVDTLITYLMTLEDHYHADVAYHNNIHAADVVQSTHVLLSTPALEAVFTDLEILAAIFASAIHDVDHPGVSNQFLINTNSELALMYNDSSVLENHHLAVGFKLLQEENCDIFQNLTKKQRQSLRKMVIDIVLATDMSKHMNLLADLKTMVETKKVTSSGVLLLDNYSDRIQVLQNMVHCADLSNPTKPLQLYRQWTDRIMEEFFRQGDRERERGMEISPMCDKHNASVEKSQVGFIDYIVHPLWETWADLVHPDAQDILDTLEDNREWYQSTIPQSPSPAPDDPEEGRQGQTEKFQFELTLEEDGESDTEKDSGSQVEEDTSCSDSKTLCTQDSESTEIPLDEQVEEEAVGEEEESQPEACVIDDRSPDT
cGMP-inhibited 3',5'-cyclic phosphodiesterase 3A, sequence (Q14432 whole entry): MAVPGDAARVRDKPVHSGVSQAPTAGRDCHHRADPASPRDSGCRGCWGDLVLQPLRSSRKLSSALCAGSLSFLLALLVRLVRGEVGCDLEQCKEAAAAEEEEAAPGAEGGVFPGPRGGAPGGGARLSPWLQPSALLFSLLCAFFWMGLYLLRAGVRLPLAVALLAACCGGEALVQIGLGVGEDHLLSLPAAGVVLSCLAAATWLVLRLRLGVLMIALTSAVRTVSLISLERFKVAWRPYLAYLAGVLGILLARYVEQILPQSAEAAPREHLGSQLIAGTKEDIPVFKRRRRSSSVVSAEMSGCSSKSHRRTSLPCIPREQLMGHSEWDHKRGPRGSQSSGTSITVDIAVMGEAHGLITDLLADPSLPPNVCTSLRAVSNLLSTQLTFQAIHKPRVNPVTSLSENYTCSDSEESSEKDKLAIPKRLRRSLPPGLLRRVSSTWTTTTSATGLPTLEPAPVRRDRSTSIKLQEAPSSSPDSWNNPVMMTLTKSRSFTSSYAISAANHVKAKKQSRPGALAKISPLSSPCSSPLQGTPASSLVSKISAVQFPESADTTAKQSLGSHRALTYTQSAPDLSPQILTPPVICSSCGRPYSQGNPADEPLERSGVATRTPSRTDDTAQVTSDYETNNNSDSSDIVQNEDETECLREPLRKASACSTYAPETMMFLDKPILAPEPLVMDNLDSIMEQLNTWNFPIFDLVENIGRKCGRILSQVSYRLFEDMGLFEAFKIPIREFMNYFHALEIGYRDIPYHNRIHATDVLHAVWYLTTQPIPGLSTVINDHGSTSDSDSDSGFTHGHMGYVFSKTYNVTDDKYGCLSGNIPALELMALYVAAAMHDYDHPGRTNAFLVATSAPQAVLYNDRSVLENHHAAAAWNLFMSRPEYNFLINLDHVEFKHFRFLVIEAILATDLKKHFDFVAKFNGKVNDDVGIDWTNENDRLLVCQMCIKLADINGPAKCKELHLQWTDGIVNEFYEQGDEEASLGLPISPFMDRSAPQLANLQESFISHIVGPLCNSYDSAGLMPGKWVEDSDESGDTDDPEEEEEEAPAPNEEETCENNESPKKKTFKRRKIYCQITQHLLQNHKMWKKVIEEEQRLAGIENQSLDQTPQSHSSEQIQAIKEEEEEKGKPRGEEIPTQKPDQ

Compound	AC50 [1] [µM]	AC50 [2] [µM]	AC50 [3] [µM]	AC50 (Adenosine receptor A1) [µM]	AC50 [4] [µM]	AC50 [5] [µM]	AC50 [6] [µM]	AC50 [7] [µM]	AC50 [8] [µM]
CO[C@@H]1[C@@H](OC(N)=O)[C@@H](O)[C@H](Oc2ccc3c(O)c(NC(=O)c4ccc(O)c(CC=C(C)C)c4)c(=O)oc3c2C)OC1(C)C [NOVOBIOCIN]	> 30	> 30	> 30	> 30	> 30	> 30	> 30	> 30	> 30
CCC1(c2ccccc2)C(=O)NCNC1=O [PRIMIDONE]	> 30	> 30	> 10	> 10	> 10	> 10	> 10	> 10	> 10
CC(=O)SCC(Cc1ccccc1)C(=O)NCC(=O)OCc1ccccc1 (centres undefined) [RACECADOTRIL]	> 30	> 30	> 30	> 30	> 30	> 30	> 30	> 30	> 30
CN(C)CCN(Cc1ccccc1)c1ccccn1 [TRIPELENNAMINE]	> 10	> 10	9.4	> 10	> 10	> 10	> 10	> 10	> 30
Cc1c(C)c2c(c(C)c1O)CCC(C)(COc1ccc(CC3SC(=O)NC3=O)cc1)O2 (centres undefined) [TROGLITAZONE]	2.88	6.19	24	> 30	> 30	> 30	22.9	> 30	> 30
c1cnc2cc3c(cc2n1)[C@@H]1CNC[C@H]3C1 [VARENICLINE]	> 30	> 30	> 30	> 30	> 30	> 30	> 30	> 30	> 30

Next, values leading:

AC50 [1] [µM]	AC50 [2] [µM]	AC50 [3] [µM]	AC50 (Adenosine receptor A1) [µM]	AC50 [4] [µM]	AC50 [5] [µM]	AC50 [6] [µM]	AC50 [7] [µM]	AC50 [8] [µM]	Compound
> 30	> 30	0.3	> 30	> 10	4.77	> 30	> 10	> 30	CCOc1ccccc1OCCN[C@H](C)Cc1ccc(OC)c(S(N)(=O)=O)c1 [TAMSULOSIN]
> 30	> 30	> 30	> 30	> 30	> 30	> 30	> 30	> 30	C[C@H](Cn1cnc2c(N)ncnc21)OCP(=O)(O)O [TENOFOVIR ANHYDROUS]
> 30	> 30	> 30	> 30	> 30	18	> 30	> 30	> 30	COc1cc2c(cc1OC)C1CC(=O)C(CC(C)C)CN1CC2 (centres undefined) [TETRABENAZINE]
8.7	> 30	> 30	> 30	> 30	> 30	> 30	> 30	> 30	CC(C)(CO)c1cc2cc(NC(=O)C3(c4ccc5c(c4)OC(F)(F)O5)CC3)c(F)cc2n1C[C@@H](O)CO [TEZACAFTOR]
> 30	> 30	> 30	> 30	> 30	> 30	> 30	> 30	> 30	Nc1c2c(nc3ccccc13)CCCC2O (centres undefined) [VELNACRINE]
